According to article PMC7790953 (ACS chemical neuroscience, 2020):
pIC50, pKd, pKi: −log10 of the molar value. “Also recorded” adds a separate entry of the source.

How the values were obtained:
[1] = molecular target: 9B1; assay type: binding, mouse; details: for pKd: read-out: Kd as printed in text (9B1); for pKi: read-out: Ki (9B1), pH 7.4
[2] = molecular target: h9B1; assay type: binding; details: for pKd: read-out: Kd as printed in text (h9B1); for pKi: read-out: Ki (h9B1), pH 7.4
[3] = system: Ab15; details: ref SI Table S2; cited from earlier work
[4] = system: 9B1; details: estimated in original report; cited from earlier work

| Compound | pKd [1] | pKi [1] | pKd [2] | pKi [2] | Binding with 9B1 in initial screening [1] | Binding with h9B1 in initial screening [2] | pIC50 [3] | Binding constant of 9B1 with morphine [4] |
| --- | --- | --- | --- | --- | --- | --- | --- | --- |
| COc1ccc2c3c1O[C@H]1C(=O)CC[C@H]4[C@@H](C2)N(C)CC[C@]314 [hydrocodone] | 8.09 | 8.09 | 7.41 | 7.41 |  |  |  |  |
| C=CCN1CC[C@]23c4c5ccc(O)c4O[C@H]2C(=O)CC[C@@]3(O)[C@H]1C5 [naloxone] |  |  |  |  | did not show significant binding affinities; also recorded: without significant binding | did not show significant binding affinities; also recorded: without significant binding |  |  |
| COc1ccc2c3c1O[C@H]1C(=O)CC[C@@]4(O)[C@@H](C2)N(C)CC[C@]314 [oxycodone] |  | 5.57 |  | 5.16 |  |  |  |  |
| CC(=O)Oc1ccc2c3c1O[C@H]1[C@@H](OC(C)=O)C=C[C@H]4[C@@H](C2)N(C)CC[C@@]341 [heroin] | 8.89 | 8.89 | 7.93 | 7.93 |  |  |  |  |
| CC(=O)O[C@H]1C=C[C@H]2[C@H]3Cc4ccc(O)c5c4[C@@]2(CCN3C)[C@H]1O5 [6-MAM, 6-monoacetylmorphine] | 8.32 | 8.32 | 7.92 | 7.92 |  |  |  |  |
| buprenorphine |  |  |  |  | did not show significant binding affinities; also recorded: without significant binding | did not show significant binding affinities; also recorded: without significant binding |  |  |
| O=C1CC[C@@]2(O)[C@H]3Cc4ccc(O)c5c4[C@@]2(CCN3CC2CC2)[C@H]1O5 [naltrexone] |  | < 5.00 |  | < 5.00 | did not show significant binding affinities; also recorded: without significant binding | did not show significant binding affinities; also recorded: without significant binding | 6.51 |  |
| CN1CC[C@]23c4c5ccc(O)c4O[C@H]2[C@@H](O)C=C[C@H]3[C@H]1C5 [morphine] |  |  |  |  |  |  |  | ~ 10^9 M^−1 |
